{"source": "patent US20130060543A1", "about": "“SYSTEMS AND METHODS FOR REVERSE ENGINEERING MODELS OF BIOLOGICAL NETWORKS” (TRUSTEES OF BOSTON UNIVERSITY, priority 2002, published 2013)", "tested_on": "SOS test network genes", "assay": "RNA expression changes of SOS test network genes after MMC perturbation (real-time qPCR)", "type": "cell-based, E. coli", "data": [{"smiles": "CO[C@@]12[C@H](COC(N)=O)C3=C(C(=O)C(C)=C(N)C3=O)N1C[C@@H]1N[C@@H]12", "note": "[MMC, Mitomycin C]", "values": [{"measurement": "Transcriptional response of all genes in the test network", "setting": "0.75 μg/ml MMC vs 0.5 μg/ml MMC baseline", "value": "statistically significant upregulation"}, {"measurement": "Relative RNA expression change xi=[RNAi]pert/[RNAi]cont−1, dinI", "setting": "0.75 μg/ml MMC vs control cells at 0.5 μg/ml MMC, gene dinI", "value": 0.334}, {"measurement": "Relative RNA expression change xi=[RNAi]pert/[RNAi]cont−1, lexA", "setting": "0.75 μg/ml MMC vs control cells at 0.5 μg/ml MMC, gene lexA", "value": 0.321}, {"measurement": "Relative RNA expression change xi=[RNAi]pert/[RNAi]cont−1, recA", "setting": "0.75 μg/ml MMC vs control cells at 0.5 μg/ml MMC, gene recA", "value": 0.496}, {"measurement": "Relative RNA expression change xi=[RNAi]pert/[RNAi]cont−1, recF", "setting": "0.75 μg/ml MMC vs control cells at 0.5 μg/ml MMC, gene recF", "value": 0.523}, {"measurement": "Relative RNA expression change xi=[RNAi]pert/[RNAi]cont−1, rpoD", "setting": "0.75 μg/ml MMC vs control cells at 0.5 μg/ml MMC, gene rpoD", "value": 0.327}, {"measurement": "Relative RNA expression change xi=[RNAi]pert/[RNAi]cont−1, rpoH", "setting": "0.75 μg/ml MMC vs control cells at 0.5 μg/ml MMC, gene rpoH", "value": 0.786}, {"measurement": "Relative RNA expression change xi=[RNAi]pert/[RNAi]cont−1, rpoS", "setting": "0.75 μg/ml MMC vs control cells at 0.5 μg/ml MMC, gene rpoS", "value": 0.672}, {"measurement": "Relative RNA expression change xi=[RNAi]pert/[RNAi]cont−1, ssb", "setting": "0.75 μg/ml MMC vs control cells at 0.5 μg/ml MMC, gene ssb", "value": 0.251}, {"measurement": "Relative RNA expression change xi=[RNAi]pert/[RNAi]cont−1, umuDC", "setting": "0.75 μg/ml MMC vs control cells at 0.5 μg/ml MMC, gene umuDC", "value": 0.834}]}]}
